Experiments:
[1] = Cytotoxicity against CHL cells assessed as chromatid gap at 825 ug/ml preincubated for 6 hrs followed by 18 hrs incubation in fresh medium in absence of S9 fraction by Giemsa-staining-based microscopic analysis; type: toxicity, cell-based, Cricetulus griseus; conditions: chinese hamster
[2] = Hydrolytic stability of the compound in D2O assessed as formation of monomethyl phosphonate and phenol at 23 degC up to 28 days by 31P NMR spectroscopy; type: physicochemical; conditions: 672 h
[3] = system: Salmonella typhimurium; test: Genotoxicity in Salmonella typhimurium TA100 assessed as number of revertant colonies per plate at 185 ug/plate after 20 mins in absence of S9 fraction by Ames test (reference value: 123); type: toxicity, organism-based; conditions: salmonella enterica subsp. enterica serovar typhimurium
[4] = system: Salmonella typhimurium; test: Genotoxicity in Salmonella typhimurium TA1535 assessed as number of revertant colonies per plate at 20.6 ug/plate after 20 mins in absence of S9 fraction by Ames test (reference value: 15); type: toxicity, organism-based; conditions: salmonella enterica subsp. enterica serovar typhimurium
[5] = system: Salmonella typhimurium; test: Genotoxicity in Salmonella typhimurium TA1535 assessed as number of revertant colonies per plate at 1667 ug/plate after 20 mins in absence of S9 fraction by Ames test (reference value: 15); type: toxicity, organism-based; conditions: salmonella enterica subsp. enterica serovar typhimurium
[6] = system: Escherichia coli; test: Genotoxicity in Escherichia coli WP2uvrA assessed as number of revertant colonies per plate at 20.6 ug/plate after 20 mins in absence of S9 fraction by Ames test (reference value: 24); type: toxicity; conditions: s9, 20 min
[7] = system: Escherichia coli; test: Genotoxicity in Escherichia coli WP2uvrA assessed as number of revertant colonies per plate at 61.7 ug/plate after 20 mins in absence of S9 fraction by Ames test (reference value: 24); type: toxicity; conditions: s9, 20 min
[8] = system: Salmonella typhimurium; test: Genotoxicity in Salmonella typhimurium TA1537 assessed as number of revertant colonies per plate at 556 ug/plate after 20 mins in absence of S9 fraction by Ames test (reference value: 9); type: toxicity, organism-based; conditions: salmonella enterica subsp. enterica serovar typhimurium
[9] = system: Salmonella typhimurium; test: Genotoxicity in Salmonella typhimurium TA1537 assessed as number of revertant colonies per plate at 5000 ug/plate after 20 mins in absence of S9 fraction by Ames test (reference value: 9); type: toxicity, organism-based; conditions: salmonella enterica subsp. enterica serovar typhimurium
[10] = system: Salmonella typhimurium; test: Genotoxicity in Salmonella typhimurium TA100 assessed as number of revertant colonies per plate at 61.7 ug/plate after 20 mins in presence of S9 fraction by Ames test (reference value: 142); type: toxicity, organism-based; conditions: salmonella enterica subsp. enterica serovar typhimurium
[11] = system: Salmonella typhimurium; test: Genotoxicity in Salmonella typhimurium TA100 assessed as number of revertant colonies per plate at 1667 ug/plate after 20 mins in presence of S9 fraction by Ames test (reference value: 142); type: toxicity, organism-based; conditions: salmonella enterica subsp. enterica serovar typhimurium
[12] = system: Salmonella typhimurium; test: Genotoxicity in Salmonella typhimurium TA1535 assessed as number of revertant colonies per plate at 20.6 ug/plate after 20 mins in presence of S9 fraction by Ames test (reference value: 13); type: toxicity, organism-based; conditions: salmonella enterica subsp. enterica serovar typhimurium
[13] = system: Salmonella typhimurium; test: Genotoxicity in Salmonella typhimurium TA1535 assessed as number of revertant colonies per plate at 556 ug/plate after 20 mins in presence of S9 fraction by Ames test (reference value: 13); type: toxicity, organism-based; conditions: salmonella enterica subsp. enterica serovar typhimurium
[14] = system: Salmonella typhimurium; test: Genotoxicity in Salmonella typhimurium TA1535 assessed as number of revertant colonies per plate at 5000 ug/plate after 20 mins in presence of S9 fraction by Ames test (reference value: 13); type: toxicity, organism-based; conditions: salmonella enterica subsp. enterica serovar typhimurium
[15] = system: Escherichia coli; test: Genotoxicity in Escherichia coli WP2uvrA assessed as number of revertant colonies per plate at 61.7 ug/plate after 20 mins in presence of S9 fraction by Ames test (reference value: 26); type: toxicity; conditions: s9, 20 min
[16] = system: Escherichia coli; test: Genotoxicity in Escherichia coli WP2uvrA assessed as number of revertant colonies per plate at 1667 ug/plate after 20 mins in presence of S9 fraction by Ames test (reference value: 26); type: toxicity; conditions: s9, 20 min
[17] = system: Salmonella typhimurium; test: Genotoxicity in Salmonella typhimurium TA98 assessed as number of revertant colonies per plate at 20.6 ug/plate after 20 mins in presence of S9 fraction by Ames test (reference value: 26); type: toxicity, organism-based; conditions: salmonella enterica subsp. enterica serovar typhimurium
[18] = system: Salmonella typhimurium; test: Genotoxicity in Salmonella typhimurium TA98 assessed as number of revertant colonies per plate at 556 ug/plate after 20 mins in presence of S9 fraction by Ames test (reference value: 26); type: toxicity, organism-based; conditions: salmonella enterica subsp. enterica serovar typhimurium
[19] = system: Salmonella typhimurium; test: Genotoxicity in Salmonella typhimurium TA98 assessed as number of revertant colonies per plate at 1667 ug/plate after 20 mins in presence of S9 fraction by Ames test (reference value: 26); type: toxicity, organism-based; conditions: salmonella enterica subsp. enterica serovar typhimurium
[20] = system: Salmonella typhimurium; test: Genotoxicity in Salmonella typhimurium TA1537 assessed as number of revertant colonies per plate at 61.7 ug/plate after 20 mins in presence of S9 fraction by Ames test (reference value: 15); type: toxicity, organism-based; conditions: salmonella enterica subsp. enterica serovar typhimurium
[21] = system: Salmonella typhimurium; test: Genotoxicity in Salmonella typhimurium TA1537 assessed as number of revertant colonies per plate at 185 ug/plate after 20 mins in presence of S9 fraction by Ames test (reference value: 15); type: toxicity, organism-based; conditions: salmonella enterica subsp. enterica serovar typhimurium
[22] = Cytotoxicity against CHL cells assessed as growth rate at 2.16 ug/ml preincubated for 6 hrs followed by 18 hrs incubation in fresh medium in absence of S9 fraction by MTT assay relative to control; type: toxicity, cell-based, Cricetulus griseus; conditions: chinese hamster, read-out: Activity
[23] = Cytotoxicity against CHL cells assessed as growth rate at 5.41 ug/ml preincubated for 6 hrs followed by 18 hrs incubation in fresh medium in absence of S9 fraction by MTT assay relative to control; type: toxicity, cell-based, Cricetulus griseus; conditions: chinese hamster, read-out: Activity
[24] = Cytotoxicity against CHL cells assessed as growth rate at 3300 ug/ml preincubated for 6 hrs followed by 18 hrs incubation in fresh medium in absence of S9 fraction by MTT assay relative to control; type: toxicity, cell-based, Cricetulus griseus; conditions: chinese hamster, read-out: Activity
[25] = Cytotoxicity against CHL cells assessed as growth rate at 2.16 ug/ml preincubated for 6 hrs followed by 18 hrs incubation in fresh medium in presence of S9 fraction by MTT assay relative to control; type: toxicity, cell-based, Cricetulus griseus; conditions: chinese hamster, read-out: Activity
[26] = Cytotoxicity against CHL cells assessed as growth rate at 1320 ug/ml preincubated for 6 hrs followed by 18 hrs incubation in fresh medium in presence of S9 fraction by MTT assay relative to control; type: toxicity, cell-based, Cricetulus griseus; conditions: chinese hamster, read-out: Activity
[27] = Cytotoxicity against CHL cells assessed as growth rate at 5.41 ug/ml after 24 hrs in absence of S9 fraction by MTT assay relative to control; type: toxicity, cell-based, Cricetulus griseus; conditions: chinese hamster, read-out: Activity
[28] = Cytotoxicity against CHL cells assessed as growth rate at 211 ug/ml after 24 hrs in absence of S9 fraction by MTT assay relative to control; type: toxicity, cell-based, Cricetulus griseus; conditions: chinese hamster, read-out: Activity
[29] = Cytotoxicity against CHL cells assessed as structural aberrations at 1650 ug/ml preincubated for 6 hrs followed by 18 hrs incubation in fresh medium in presence of S9 fraction by Giemsa-staining-based microscopic analysis; type: toxicity, cell-based, Cricetulus griseus; conditions: chinese hamster
[30] = Cytotoxicity against CHL cells assessed as structural aberrations at 3300 ug/ml preincubated for 6 hrs followed by 18 hrs incubation in fresh medium in presence of S9 fraction by Giemsa-staining-based microscopic analysis; type: toxicity, cell-based, Cricetulus griseus; conditions: chinese hamster
[31] = Cytotoxicity against CHL cells assessed as chromatid gap at 825 ug/ml preincubated for 6 hrs followed by 18 hrs incubation in fresh medium in presence of S9 fraction by Giemsa-staining-based microscopic analysis; type: toxicity, cell-based, Cricetulus griseus; conditions: chinese hamster
[32] = Cytotoxicity against CHL cells assessed as structural aberrations at 825 ug/ml after 24 hrs by Giemsa-staining-based microscopic analysis; type: toxicity, cell-based, Cricetulus griseus; conditions: chinese hamster
[33] = Cytotoxicity against CHL cells assessed as chromatid gap at 1650 ug/ml after 24 hrs by Giemsa-staining-based microscopic analysis; type: toxicity, cell-based, Cricetulus griseus; conditions: chinese hamster
[34] = Hydrolytic stability of compound in D2O at pH >8.5 by 31P NMR spectroscopy; type: physicochemical

In the case of COP(=O)(CCC(N)C(=O)O)Oc1cccc(CC(=O)O)c1 (centres undefined), the Activity [1] is reported as 1%, the Stability [2] is reported as “Stable” and the Activity [3] is reported as 128. The Activity [4] was 15, the Activity [5] was 11 and the Activity [6] was 26. For the same compound, the Activity [7] was 26, the Activity [8] was 11 and the Activity [9] was 9. The Activity [10] was 133, the Activity [11] was 131 and the Activity [12] was 11. The Activity [13] was 12, the Activity [14] was 11 and the Activity [15] was 28. For the same compound, the Activity [16] was 23, the Activity [17] was 29 and the Activity [18] was 28. It also gave an Activity [19] of 29, an Activity [20] of 17 and an Activity [21] of 12. It also gave a viability at 18 h, 2.16 ug/ml [22] of 103%, a viability at 18 h, 5.41 ug/ml [23] of 103% and a viability at 18 h, 3300 ug/ml [24] of 97.1%. It also gave a viability at 18 h, 2.16 ug/ml [25] of 101%, a viability at 18 h, 1320 ug/ml [26] of 95.7% and a viability at 24 h, 5.41 ug/ml [27] of 105%. For the same compound, the viability at 24 h, 211 ug/ml [28] was 98.2%, the Activity [29] was 1% and the Activity [30] was 1%. It also gave an Activity [31] of 0%, an Activity [32] of 0% and an Activity [33] of 1%. The Stability [34] was “Unstable”.

Source: ChEMBL document CHEMBL3856258, “Phosphonate-based irreversible inhibitors of human γ-glutamyl transpeptidase (GGT). GGsTop is a non-toxic and highly selective inhibitor with critical electrostatic interaction with an active-site residue Lys562 for enhanced inhibitory activity” (Bioorg Med Chem, 2016)
